In US8242120B2 (priority 2007, dated 2012):
“Also recorded” adds a separate entry of the source.

Key:
[1] = system: Avian influenza A strain H5N1 virus; format: cell-based
CTP synthase = settings: cited from earlier work
[2] = mouse, in vivo
[3] = system: Venezuelan Equine Encephalitis (VEE); format: cell-based, Venezuelan equine encephalitis virus
[4] = system: Venezuelan equine encephalitis virus (TC-83 vaccine strain); parameters: species or system C3H/HeN mice; settings: in vivo
flu A (DUCK)-H5N1 virus = format: cell-based, Avian influenza A H5N1

Nc1ccn([C@@H]2C[C@H](CO)[C@@H](O)[C@H]2O)c(=O)n1 [(−) carbodine, (1R,2S,3R,4R)-1-[2,3-Dihydroxy-4-(hydroxymethyl)-cyclopentan-1-yl]cytosine]
activity as an inhibitor of Avian Influenza A strain H5N1 [1]: good activity | inhibition of CTP synthase that converts UTP to CTP (CTP synthase): known inhibitor | weight loss in sham infected mice [2]: weight loss was observed | activity against VEE in vitro [3]: good activity | activity against vaccine strain (TC-83) of VEEV in C3H/HeN mouse model [4]: active | all disease signs measured ([4]; mouse): effective in significantly improving | mean day to death ([4]; mouse): efficacious in significantly improving; also recorded: effective in significantly improving | reduction in brain virus titer ([4]; mouse): 1 log | survival ([4]; mouse): efficacious in significantly improving; also recorded: effective in significantly improving | weight gain ([4]; mouse): efficacious in significantly improving; also recorded: effective in significantly improving | activity against H5N1 in vitro (flu A (DUCK)-H5N1 virus): good activity
